# Reference: patent EP4786451A1, “COMPOUND TARGETING INTEGRIN AND USE THEREOF IN RNAI AGENT” (YUN HO BIO CO., LTD, priority 2023, dated 2025)
# Several values for one entry are separate records, joined by “and”; a condition that tells them apart may be missing. Identical values can stand only once. Like-named read-outs stand apart in the source and are kept apart here.
# How the values were obtained:
# [1] = target: T1, Integrin αvβ6 Receptor (Homo sapiens, UniProt P06756+P18564); experiment: HTRF binding activity to integrin αvβ6 receptor (competition with LAP (TGF-beta 1)); conditions: for specific binding ability to the αvβ6 receptor: αvβ6 compared with αvβ1 and αvβ5; for Hillslope: fit parameter of the inhibition curve; for Max: maximum of the inhibition curve; for Min: minimum of the inhibition curve
# Method: Main Experimental Reagents and Consumables
# Inhibition rate and fit IC50 was calculated using Excel and XL-Fit respectively, formula as follows: Inhibition % = (Max−Signal)/(Max−Min)*100 [formula] Y = Bottom + (Top−Bottom)/(1+(IC50/X)[…]), [formula] Y and X represent %inhibition and compound concentration respectively
# [2] = target: Integrin αvβ1 Receptor (Homo sapiens, UniProt P05556+P06756); experiment: Fluorescence polarization (FP) binding activity to integrin αvβ1 receptor (competition with Cyclo[-RGDy-K(5-FAM)]); conditions: Table 4, different integrin receptors
# [3] = target: Integrin αvβ5 Receptor (Homo sapiens, UniProt P06756+P18084); experiment: HTRF binding activity to integrin αvβ5 receptor (competition with Vitronectin)
# Method: B. Evaluation of Compound Binding Activity to Integrin αvβ5 Receptor using Homogeneous Time-Resolved Fluorescence (HTRF) Technology
# Compound Preparation: Same as A.
# Then 5 µL of integrin receptor protein αvβ5 was added (5 µL of assay buffer was added for negative control), incubated at room temperature for 20 minutes. Next, 5 µL of ligand protein VTN, and 10 µL of the SA-Tb and Anti-His XL665 mixture were added respectively, incubated at room temperature for 1 hour.
# [4] = target: T1, Integrin αvβ6 Receptor; experiment: HTRF binding activity to integrin αvβ6 receptor (competition with LAP (TGF-beta 1)); conditions: for Hillslope: fit parameter of the inhibition curve; for Emax: maximum of the inhibition curve, read-out: Max; for IC50: table of 5FAM-labelled compounds
# Method: Reagent Preparation: Assay buffer was prepared.
# [5] = Integrin αvβ6, HTRF, Table 3, several runs, each with Cilengitide and 1 as references, read-out: IC50
# [6] = Table 4, different integrin receptors, read-out: IC50 (nM) αvβ6
# [7] = IC50 (nM) αvβ5, Table 4, different integrin receptors
# [8] = Integrin αvβ6, HTRF, table of 5FAM-labelled compounds, read-out: IC50
# Chain of Integrin αvβ5 Receptor (P06756 31-992 limits assumed): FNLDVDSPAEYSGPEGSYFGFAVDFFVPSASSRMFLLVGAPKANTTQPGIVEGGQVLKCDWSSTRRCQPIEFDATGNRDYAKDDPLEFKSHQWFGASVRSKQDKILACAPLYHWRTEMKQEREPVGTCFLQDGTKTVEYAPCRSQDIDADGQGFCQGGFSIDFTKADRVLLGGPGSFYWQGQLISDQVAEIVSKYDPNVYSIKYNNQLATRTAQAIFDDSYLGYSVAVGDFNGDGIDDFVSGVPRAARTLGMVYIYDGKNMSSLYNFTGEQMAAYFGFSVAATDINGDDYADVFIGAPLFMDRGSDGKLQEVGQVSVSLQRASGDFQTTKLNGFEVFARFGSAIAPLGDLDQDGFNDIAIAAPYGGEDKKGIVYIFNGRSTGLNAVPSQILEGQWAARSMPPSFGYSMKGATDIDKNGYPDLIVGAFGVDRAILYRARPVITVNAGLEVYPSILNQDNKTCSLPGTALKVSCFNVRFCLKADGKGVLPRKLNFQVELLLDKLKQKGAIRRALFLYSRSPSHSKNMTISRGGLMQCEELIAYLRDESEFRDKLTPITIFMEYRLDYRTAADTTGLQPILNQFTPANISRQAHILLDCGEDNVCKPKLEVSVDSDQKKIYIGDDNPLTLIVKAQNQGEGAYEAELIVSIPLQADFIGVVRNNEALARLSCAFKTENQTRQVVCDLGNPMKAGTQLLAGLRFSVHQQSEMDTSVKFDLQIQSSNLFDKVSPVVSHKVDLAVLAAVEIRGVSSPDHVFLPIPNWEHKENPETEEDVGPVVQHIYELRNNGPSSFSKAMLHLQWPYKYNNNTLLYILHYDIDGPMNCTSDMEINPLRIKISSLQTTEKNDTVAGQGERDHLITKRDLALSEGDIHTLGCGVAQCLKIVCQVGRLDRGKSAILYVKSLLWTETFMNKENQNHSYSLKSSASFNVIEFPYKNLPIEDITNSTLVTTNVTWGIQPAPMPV
# Chain of Integrin αvβ5 Receptor (P18084 24-719 limits assumed): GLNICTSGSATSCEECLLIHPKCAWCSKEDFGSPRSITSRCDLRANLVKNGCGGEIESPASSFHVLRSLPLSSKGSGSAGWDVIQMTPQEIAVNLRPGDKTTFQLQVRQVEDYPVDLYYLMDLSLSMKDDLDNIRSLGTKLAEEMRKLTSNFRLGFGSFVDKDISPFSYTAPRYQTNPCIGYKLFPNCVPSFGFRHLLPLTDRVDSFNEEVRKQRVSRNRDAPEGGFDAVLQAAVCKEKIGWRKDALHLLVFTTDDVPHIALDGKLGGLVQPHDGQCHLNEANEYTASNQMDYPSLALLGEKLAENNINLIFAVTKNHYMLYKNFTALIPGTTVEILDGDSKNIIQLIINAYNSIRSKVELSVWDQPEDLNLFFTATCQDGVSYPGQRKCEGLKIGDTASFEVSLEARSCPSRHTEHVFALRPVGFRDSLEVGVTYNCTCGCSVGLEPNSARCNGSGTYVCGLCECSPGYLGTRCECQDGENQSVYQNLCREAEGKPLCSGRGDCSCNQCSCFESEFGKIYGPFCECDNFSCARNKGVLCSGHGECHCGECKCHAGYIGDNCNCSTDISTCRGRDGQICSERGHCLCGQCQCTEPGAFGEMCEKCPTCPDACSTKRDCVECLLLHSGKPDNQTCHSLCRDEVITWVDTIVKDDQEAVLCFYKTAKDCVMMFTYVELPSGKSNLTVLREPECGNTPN
# Chain of Integrin αvβ1 Receptor (P06756 31-992 limits assumed): as the sequence (P06756 31-992 limits assumed) above
# Chain of Integrin αvβ1 Receptor (P05556 21-728 limits assumed): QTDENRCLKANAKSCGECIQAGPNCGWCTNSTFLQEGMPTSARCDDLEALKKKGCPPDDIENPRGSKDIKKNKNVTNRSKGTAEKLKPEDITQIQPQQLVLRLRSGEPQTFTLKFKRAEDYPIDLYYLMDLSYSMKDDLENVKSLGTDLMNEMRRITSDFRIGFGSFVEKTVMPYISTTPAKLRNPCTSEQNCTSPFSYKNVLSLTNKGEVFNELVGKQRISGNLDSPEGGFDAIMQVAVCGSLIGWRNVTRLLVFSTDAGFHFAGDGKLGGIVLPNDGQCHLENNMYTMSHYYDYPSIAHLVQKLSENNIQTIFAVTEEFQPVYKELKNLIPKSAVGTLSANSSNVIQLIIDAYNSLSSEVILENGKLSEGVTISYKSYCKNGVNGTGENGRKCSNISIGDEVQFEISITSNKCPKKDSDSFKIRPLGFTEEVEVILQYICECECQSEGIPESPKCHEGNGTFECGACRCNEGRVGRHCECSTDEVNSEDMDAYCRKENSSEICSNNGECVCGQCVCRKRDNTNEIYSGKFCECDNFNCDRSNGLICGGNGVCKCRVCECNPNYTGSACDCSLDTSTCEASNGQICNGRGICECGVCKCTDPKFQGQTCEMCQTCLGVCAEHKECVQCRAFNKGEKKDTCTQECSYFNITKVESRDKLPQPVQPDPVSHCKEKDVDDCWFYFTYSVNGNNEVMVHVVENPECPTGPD
# T1 sequence (P06756 31-992 limits assumed): as the sequence (P06756 31-992 limits assumed) above
# T1 sequence (P18564 22-707 limits assumed): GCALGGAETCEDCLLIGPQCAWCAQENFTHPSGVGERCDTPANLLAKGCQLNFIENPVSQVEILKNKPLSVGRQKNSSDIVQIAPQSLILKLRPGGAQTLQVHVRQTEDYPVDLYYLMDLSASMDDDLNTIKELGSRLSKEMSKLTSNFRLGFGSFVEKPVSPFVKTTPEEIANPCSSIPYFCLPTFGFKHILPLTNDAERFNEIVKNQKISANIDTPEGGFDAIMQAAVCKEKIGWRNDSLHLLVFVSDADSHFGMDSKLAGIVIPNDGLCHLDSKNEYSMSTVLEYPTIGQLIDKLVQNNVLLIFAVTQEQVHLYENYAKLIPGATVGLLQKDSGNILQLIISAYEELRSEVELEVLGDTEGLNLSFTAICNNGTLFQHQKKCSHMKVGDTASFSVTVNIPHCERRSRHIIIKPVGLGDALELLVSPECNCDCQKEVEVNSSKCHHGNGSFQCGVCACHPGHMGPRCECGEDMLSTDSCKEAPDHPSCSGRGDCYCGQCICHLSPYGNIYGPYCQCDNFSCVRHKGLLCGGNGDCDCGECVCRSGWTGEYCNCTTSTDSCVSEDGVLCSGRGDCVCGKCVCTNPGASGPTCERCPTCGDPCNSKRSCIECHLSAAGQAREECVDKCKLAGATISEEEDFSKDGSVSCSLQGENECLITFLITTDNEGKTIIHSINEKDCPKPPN
structure (smiles),measurement,setting,value
"Cc1ccnc(NCCC2CCN(CC(=O)NC(CC(=O)O)c3ccc(-c4ccc(OCCOCCOCCOCCOCCN=[N+]=[N-])c5ccccc45)cc3)C2=O)c1 (single isomer, unassigned) [Compound 5-P1]",IC50,[1]; [5],3.6 nM
same,IC50,[1]; [6],3.6 nM
same,specific binding ability to the αvβ6 receptor,[1],specific binding ability to the αvβ6 receptor
same,IC50,[2],753 nM
same,IC50,[3]; [7],83.4 nM
"Cc1ccnc(NCCC2CCN(CC(=O)NC(CC(=O)O)c3ccc(-c4ccc(OCCOCCOCCOCCOCCN=[N+]=[N-])c5ccccc45)cc3)C2=O)c1 (single isomer, unassigned) [Compound 5-P2]",IC50,[1]; [5],3.9 nM
same,IC50,[1]; [6],3.9 nM
same,specific binding ability to the αvβ6 receptor,[1],specific binding ability to the αvβ6 receptor
same,IC50,[2],333 nM
same,IC50,[3]; [7],142 nM
"Cc1nn(-c2cccc(C(CC(=O)O)CN3CC[C@@H](CCc4ccc5c(n4)NCCC5)C3)c2)c(C)c1OCCOCCOCCOCCOCCN=[N+]=[N-] (single isomer, unassigned) [Compound 14-P1]",IC50,[1]; [5],9.4 nM
"Cc1nn(-c2cccc(C(CC(=O)O)CN3CC[C@@H](CCc4ccc5c(n4)NCCC5)C3)c2)c(C)c1OCCOCCOCCOCCOCCN=[N+]=[N-] (single isomer, unassigned) [Compound 14-P2]",IC50,[1]; [5],3.5 nM
same,IC50,[1]; [6],3.9 nM
same,IC50,[2],10.3 nM
same,IC50,"[3]; read-out: IC50 (nM) αvβ5, Table 4, different integrin receptors",0.7 nM
"[N-]=[N+]=NCCOCCOCCOCCOCCOc1cccc([C@H](CC(=O)O)CN2CC[C@@H](CCc3ccc4c(n3)NCCC4)C2)c1 (single isomer, unassigned) [Compound 18-P1]",IC50,[1]; [5],3.2 nM
same,IC50,[1]; [6],3.2 nM
same,IC50,[2],9.1 nM
same,IC50,[3]; [7],0.6 nM
"[N-]=[N+]=NCCOCCOCCOCCOCCOc1ccc([C@H](CC(=O)O)CN2CC[C@@H](CCc3ccc4c(n3)NCCC4)C2)cc1 (single isomer, unassigned) [Compound 20-P1]",IC50,[1]; [5],3.7 nM
same,IC50,[1]; [6],3.7 nM
same,IC50,[2],8.1 nM
same,IC50,[3]; [7],0.7 nM
"CC(C)[C@H]1C(=O)N[C@@H](CCCNC(=N)N)C(=O)NCC(=O)N[C@@H](CC(=O)O)C(=O)N[C@H](Cc2ccccc2)C(=O)N1C [Cilengitide, reference compound]",Hillslope,[4],1.2
same,Emax,[4],98.2%
"Cc1ccnc(NCCCC(=O)NCC(=O)N[C@@H](CC(=O)O)c2ccc(-c3ccc(OCCOCCOCCOCCOCCN=[N+]=[N-])c4ccccc34)cc2)c1 [Compound 1, reference compound]",IC50,[1]; [5],2.5 nM and 2.3 nM
same,IC50,[1]; [6],2.5 nM
same,IC50,[2],9.7 nM
same,IC50,[3]; [7],3.4 nM
Cc1ccnc(NCCCC(=O)NCC(=O)N[C@@H](CC(=O)O)c2ccc(-c3ccc(OCCOCCOCCOCCOCCn4cc(COCCOCCNC(=O)CCC(CCC(=O)NCCOCCOCc5cn(CCOCCOCCOCCOCCOc6ccc(-c7ccc([C@H](CC(=O)O)NC(=O)CNC(=O)CCCNc8cc(C)ccn8)cc7)c7ccccc67)nn5)(CCC(=O)NCCOCCOCc5cn(CCOCCOCCOCCOCCOc6ccc(-c7ccc([C@H](CC(=O)O)NC(=O)CNC(=O)CCCNc8cc(C)ccn8)cc7)c7ccccc67)nn5)NC(=O)CCCC(=O)NCCCCCCNC(=O)c5ccc6c(c5)C(=O)OC65c6ccc(O)cc6Oc6cc(O)ccc65)nn4)c4ccccc34)cc2)c1 [Compound 1-3-5FAM],Hillslope,[4],1.6
same,Emax,[4],107%
same,IC50,[4],2.52 nM
Cc1ccnc(NCCCC(=O)NCC(=O)N[C@@H](CC(=O)O)c2ccc(-c3ccc(OCCOCCOCCOCCOCCn4cc(CNC(=O)c5ccc6c(c5)C(=O)OC65c6ccc(O)cc6Oc6cc(O)ccc65)nn4)c4ccccc34)cc2)c1 [Compound 1-5FAM],Emax,[4],97%
same,IC50,[4],1.41 nM
COC(=O)C[C@H](NC(=O)CNC(=O)CCCN(C(=O)OC(C)(C)C)c1cc(C)ccn1)c1ccc(-c2ccc(OCCOCCOCCOCCOCCn3cc(CNC(=O)c4ccc5c(c4)C(=O)OC54c5ccc(O)cc5Oc5cc(O)ccc54)nn3)c3ccccc23)cc1 [Compound 1NG-5FAM],Hillslope,[4],2.5
same,Emax,[4],100%
same,IC50,[4],41.9 nM
Cc1ccnc(NCCCC(=O)N2CCN(C(CC(=O)O)c3ccc(-c4ccc(OCCOCCOCCOCCOCCn5cc(CNC(=O)c6ccc7c(c6)C(=O)OC76c7ccc(O)cc7Oc7cc(O)ccc76)nn5)c5ccccc45)cc3)CC2)c1 (stereo not drawn) [Compound 4-5FAM],Hillslope,[4],1.1
same,Emax,[4],100%
Cc1ccnc(NCCC2CCN(CC(=O)N[C@@H](CC(=O)O)c3ccc(-c4ccc(OCCOCCOCCOCCOCCn5cc(CNC(=O)c6ccc7c(c6)C(=O)OC76c7ccc(O)cc7Oc7cc(O)ccc76)nn5)c5ccccc45)cc3)C2=O)c1 (stereo partly drawn) [Compound 5-5FAM],Hillslope,[4],1.3
same,Emax,[4],107%
O=C(O)c1ccc2c(c1)C(=O)OC21c2ccc(O)cc2Oc2cc(O)ccc21 [Compound 5FAM],Hillslope,"[1]; Integrin αvβ6, HTRF",-11.5
same,Max,"[1]; Integrin αvβ6, HTRF",6.3
same,Min,"[1]; Integrin αvβ6, HTRF",-2.8
same,IC50,[1]; [8],> 100 nM
CNc1cccc(CC(=O)NCC(=O)N[C@@H](CC(=O)O)c2ccc(-c3ccc(OCCOCCOCCOCCOCCn4cc(CNC(=O)c5ccc6c(c5)C(=O)OC65c6ccc(O)cc6Oc6cc(O)ccc65)nn4)c4ccccc34)cc2)n1 [Compound 6-5FAM],Hillslope,[4],1.2
same,Emax,[4],95.8%
same,IC50,[4],1.6 nM
CNc1cccc(CCCCC(=O)N[C@@H](CC(=O)O)c2ccc(-c3ccc(OCCOCCOCCOCCOCCn4cc(CNC(=O)c5ccc6c(c5)C(=O)OC65c6ccc(O)cc6Oc6cc(O)ccc65)nn4)c4ccccc34)cc2)n1 [Compound 7-5FAM],Hillslope,[4],1.2
same,Emax,[4],102%
same,IC50,[4],3.17 nM
[N-]=[N+]=NCCOCCOCCOCCOCCOc1ccc(-c2ccc([C@H](CC(=O)O)NC(=O)CCCCc3ccc4c(n3)NCCC4)cc2)c2ccccc12 [Compound 8],Hillslope,"[1]; Integrin αvβ6, HTRF",2.5
same,Max,"[1]; Integrin αvβ6, HTRF",107.0
same,Min,"[1]; Integrin αvβ6, HTRF",-2.0
same,IC50,[1]; [8],1.37 nM
O=C(O)CC(NC(=O)CCCCc1nc2c(cc1CNC(=O)CCOCCOCCOCCOCCNC(=O)c1ccc3c(c1)C(=O)OC31c3ccc(O)cc3Oc3cc(O)ccc31)CCCN2)c1ccc(-c2cccc3ccccc23)cc1 (stereo not drawn) [Compound 9-5FAM],Hillslope,"[1]; Integrin αvβ6, HTRF",2.0
same,Max,"[1]; Integrin αvβ6, HTRF",103.1
same,Min,"[1]; Integrin αvβ6, HTRF",-2.2
same,IC50,[1]; [8],1.48 nM
Cc1cc(C)n(-c2cccc(C(CC(=O)O)CN3CCC(CCc4nc5c(cc4CNC(=O)CCOCCOCCOCCOCCN=[N+]=[N-])CCCN5)C3)c2)n1 (stereo not drawn) [Compound 13],IC50,[1]; [5],2.5 nM and 1.7 nM
Cc1nn(-c2cccc(C(CC(=O)O)CN3CC[C@@H](CCc4ccc5c(n4)NCCC5)C3)c2)c(C)c1OCCOCCOCCOCCOCCN=[N+]=[N-] (stereo partly drawn) [Compound 14],IC50,[1]; [5],4.9 nM and 2.8 nM
Cc1nc(C)n(CCOCCOCCOCCOCCN=[N+]=[N-])c1-c1cccc(C(CC(=O)O)CN2CC[C@@H](CCc3ccc4c(n3)NCCC4)C2)c1 (stereo partly drawn) [Compound 15],IC50,[1]; [5],2.5 nM
O=C(NCc1cn(CCOCCOCCOCCOCCOCCN(CCCCc2ccc3c(n2)NCCC3)CC[C@H](Nc2ncnc3ccccc23)C(=O)O)nn1)c1ccc2c(c1)C(=O)OC21c2ccc(O)cc2Oc2cc(O)ccc21 [Compound 16-5FAM],Hillslope,[4],1.4
same,Emax,[4],101%
same,IC50,[4],1.77 nM
COCCN(CCCCc1ccc2c(n1)NCCC2)CC[C@H](Nc1ncnc2cc(OCCOCCOCCOCCOCCn3cc(CNC(=O)c4ccc5c(c4)C(=O)OC54c5ccc(O)cc5Oc5cc(O)ccc54)nn3)ccc12)C(=O)O [Compound 17-5FAM],Hillslope,[4],1.5
same,Emax,[4],98.9%
same,IC50,[4],7.99 nM
[N-]=[N+]=NCCOCCOCCOCCOCCOc1cccc(C(CC(=O)O)CN2CCC(CCc3ccc4c(n3)NCCC4)C2)c1 (stereo not drawn) [Compound 18-P2],IC50,[1]; [5],13.9 nM
[N-]=[N+]=NCCOCCOCCOCCOCCOc1ccc(C(CC(=O)O)CN2CCC(CCc3ccc4c(n3)NCCC4)C2)cc1 (stereo not drawn) [Compound 20-P2],IC50,[1]; [5],13.4 nM
[N-]=[N+]=NCCOCCOCCOCCOCCOc1ccc(-c2ccc(C(CC(=O)O)CN3CCC(CCc4ccc5c(n4)NCCC5)C3)cc2)c2ccccc12 (stereo not drawn) [Compound 49],IC50,[1]; [5],3.1 nM
[N-]=[N+]=NCCOCCOCCOCCOCCOc1ccc(F)c(C(CC(=O)O)CN2CCC(CCc3ccc4c(n3)NCCC4)C2)c1 (stereo not drawn) [Compound 53],IC50,[1]; [5],3.8 nM
COCCOc1cc(OCCOCCOCCOCCOCCN=[N+]=[N-])cc(C(CC(=O)O)CN2CCC(CCc3ccc4c(n3)NCCC4)C2)c1 (stereo not drawn) [Compound 57],IC50,[1]; [5],3.3 nM
[N-]=[N+]=NCCOCCOCCOCCOCCOc1cc(-c2ccccc2)cc(C(CC(=O)O)CN2CCC(CCc3ccc4c(n3)NCCC4)C2)c1 (stereo not drawn) [Compound 59],IC50,[1]; [5],2.9 nM
[N-]=[N+]=NCCOCCOCCOCCOCCOc1cccc2c(-c3ccc(C(CC(=O)O)CN4CCC(CCc5ccc6c(n5)NCCC6)C4)cc3)cccc12 (stereo not drawn) [Compound 71],IC50,[1]; [5],3 nM
[N-]=[N+]=NCCOCCOCCOCCOCCOc1ccc(C(CC(=O)O)CN2CCC(CCc3ccc4c(n3)NCCC4)C2)cc1F (stereo not drawn) [Compound 83],IC50,[1]; [5],3.7 nM
[N-]=[N+]=NCCOCCOCCOCCOCCOc1ccc(-c2ccc(C(CC(=O)O)CN3CCC(CCc4ccc5c(n4)NCCC5)C3)cc2)cc1 (stereo not drawn) [Compound 84],IC50,[1]; [5],3.8 nM
[N-]=[N+]=NCCOCCOCCOCCOCCOc1cc(C(CC(=O)O)CN2CCC(CCc3ccc4c(n3)NCCC4)C2)ccc1F (stereo not drawn) [Compound 86],IC50,[1]; [5],4.5 nM
